Reference: patent US20210100777A1, “HEAT SHOCK PROTEIN (HSP) INHIBITION AND MONITORING EFFECTIVENESS THEREOF” (H. LEE MOFFITT CANCER CENTER AND RESEARCH INSTITUTE, INC., priority 2013, published 2021)

How the values were obtained:
HSPs in RPMI-8226 cells = test: LC-MRM relative quantification of HSPs after 17-DMAG (Example 2); format: cell-based, human; settings: for CDC37 Fold Change, LC-MRM / HS90A Fold Change, LC-MRM / HS90B Fold Change, LC-MRM / HSP7C Fold Change, LC-MRM / HSP7E Fold Change, LC-MRM / HSP71 Fold Change, LC-MRM / HSP74 Fold Change, LC-MRM / HSPA5 Fold Change, LC-MRM / HSP90α Fold Change, LC-MRM: RPMI-8226, 100 nM; for CDC37 Fold Change, LC-MRM / HS90A Fold Change, LC-MRM / HS90B Fold Change, LC-MRM / HSP7C Fold Change, LC-MRM / HSP7E Fold Change, LC-MRM / HSP71 Fold Change, LC-MRM / HSP74 Fold Change, LC-MRM / HSPA5 Fold Change, LC-MRM: 24 hrs after treatment vs. control; for HSP90α Fold Change, LC-MRM: 24 hrs vs. control
Method: Cell Culture, Lysis, and HSP Sample Preparation for Mass Spectrometry. RPMI-8226 and 8226/LR5 cells were maintained as previously described (Bellamy et al., Cancer Res. 51:995-1002 (1991); Remily-Wood et al., Proteomics Clin. Appl. 5:383-96 (2011)). The heat shock protein 90 inhibitor, 17-desmethoxy-17-N,N-dimethylaminoethylamino-geldanamycin (17-DMAG), was dissolved in DMSO (100 μM stock). Based on prior IC50 measurements, the RPMI-8226 cells were treated with 100 nM 17-DMAG for 24 hours, and 8226/LR5 cells were treated with 50 nM 17-DMAG. Cells (n=10^6) were lysed using in aqueous 100 mM ammonium bicarbonate containing 8M urea for protein denaturation. Protein concentrations were measured by Bradford assays; consistent aliquots of total protein (380 ng) were injected for LC-MRM, and the same solutions were used for DI-MRM. Digestion, addition of SIS peptides, and mass spectrometry sample preparation were performed as described for standard proteins.
[…] Quantification. For HSP proteins in cell lysate, 184 transitions from 32 peptides (see Table 2) were monitored as previously described (Remily-Wood et al., Proteomics Clin. Appl. 5:383-96 (2011)). Both relative and absolute quantification were calculated from the sum of the peak areas for all detected transitions using Skyline (MacLean et al., Bioinformatics 26:966-8 (2010)) or the combination of MRMer (Martin et al., Mol. Cell Proteomics 7:2270-8 (2008)) and Post-MRMer (http://proteome.moffitt. org).

melanoma cell lines = test: Colony formation assay; format: cell-based; settings: 300 nM, up to 4 weeks; any of the cell lines
Method: Colony formation. Cells (1×10^4 per ml) were grown overnight before being treated with vehicle (DMSO) or XL888 (300 nM) for 4 weeks as described in (Paraiso et al., Br. J. Cancer 102:1724-30 (2010)), and relative colony density was determined by solubilizing the crystal violet dye in 10% acetic acid followed by measurement of absorbance at 450 nm.

Question: How did the “CDC37 Fold Change, LC-MRM” value (HSPs in RPMI-8226 cells; Table 6) turn out when `CO[C@H]1/C=C\C=C(/C)C(=O)NC2=CC(=O)C(NCCN(C)C)=C(C[C@@H](C)C[C@H](OC)[C@H](O)[C@@H](C)/C=C(\C)[C@@H]1OC(N)=O)C2=O` [17-DMAG, 17-Dimethylaminoethylamino-17-demethoxygeldanamycin] was run?
Answer: 1.33

Question: And the “HS90A Fold Change, LC-MRM” value (HSPs in RPMI-8226 cells; Table 6)?
Answer: 2.21

Question: And the “HS90B Fold Change, LC-MRM” value (HSPs in RPMI-8226 cells; Table 6)?
Answer: 1.53

Question: And the “HSP7C Fold Change, LC-MRM” value (HSPs in RPMI-8226 cells; Table 6)?
Answer: 2.28

Question: And the “HSP7E Fold Change, LC-MRM” value (HSPs in RPMI-8226 cells; Table 6)?
Answer: 1.23

Question: And the “HSP71 Fold Change, LC-MRM” value (HSPs in RPMI-8226 cells; Table 6)?
Answer: 4.67

Question: And the “HSP74 Fold Change, LC-MRM” value (HSPs in RPMI-8226 cells; Table 6)?
Answer: 1.45

Question: And the “HSPA5 Fold Change, LC-MRM” value (HSPs in RPMI-8226 cells; Table 6)?
Answer: 2.66

Question: And the “CDC37 Fold Change, LC-MRM” value (HSPs in RPMI-8226 cells; Table 7)?
Answer: 1.33

Question: What about the “HS90A Fold Change, LC-MRM” value (HSPs in RPMI-8226 cells; Table 7) of the same compound?
Answer: 2.21

Question: And the “HS90B Fold Change, LC-MRM” value (HSPs in RPMI-8226 cells; Table 7)?
Answer: 1.53

Question: And the “HSP7C Fold Change, LC-MRM” value (HSPs in RPMI-8226 cells; Table 7)?
Answer: 2.28

Question: And the “HSP7E Fold Change, LC-MRM” value (HSPs in RPMI-8226 cells; Table 7)?
Answer: 1.23

Question: And the “HSP71 Fold Change, LC-MRM” value (HSPs in RPMI-8226 cells; Table 7)?
Answer: 4.67

Question: What about the “HSP74 Fold Change, LC-MRM” value (HSPs in RPMI-8226 cells; Table 7) of the same compound?
Answer: 1.45

Question: And the “HSPA5 Fold Change, LC-MRM” value (HSPs in RPMI-8226 cells; Table 7)?
Answer: 2.66

Question: And the “HSP90α Fold Change, LC-MRM” value (HSPs in RPMI-8226 cells; y3 (Least Interference))?
Answer: 2.19

Question: And the “HSP90α Fold Change, LC-MRM” value (HSPs in RPMI-8226 cells; y3-y5 (DI-MRM Interference-Corrected))?
Answer: 2.21

Question: What about the “HSP90α Fold Change, LC-MRM” value (HSPs in RPMI-8226 cells; y3-y5 (Selected Transitions)) of the same compound?
Answer: 2.21

Question: And the “HSP90α Fold Change, LC-MRM” value (HSPs in RPMI-8226 cells; y3-y6 (DI-MRM Interference-Corrected))?
Answer: 2.21

Question: What about the “HSP90α expression increase, LC-MRM” value (HSPs in RPMI-8226 cells; RPMI-8226, 24 hours after treatment, same for y3-y6, y3-y5 or just y3) of the same compound?
Answer: approximately 2.2 fold

Question: `CC[C@@H](C)Nc1cc(C(=O)N[C@@H]2C[C@H]3CC[C@@H](C2)N3c2ccc(C(=O)C3CC3)cn2)c(C)cc1C(N)=O` [XL888, 5-((R)-sec-butylamino)-N1-((1R,3s,5S)-8-(5-(cyclopropanecarbonyl)pyridin-2-yl)-8-azabicyclo[3.2.1]octan-3-yl)-2-methylterephthalamide] was tested. Which colony formation (melanoma cell lines) did it give?
Answer: no signs of colony formation
